Experimental data from article PMC5668925 (Biochemistry and Biophysics Reports, 2015).
Like-named read-outs stand apart in the source and are kept apart here. Each block holds one molecule with its values, some of them ahead of it.

Tests used:
[1] = target: T1, NCT (N- and C-terminal truncated trehalase) (Spodoptera frugiperda, UniProt Q0ZIF5); assay: glucose release assay, Lineweaver-Burk slope replots; format: biochemical; conditions: read-out: Enzyme / NCT; competitive; substrate trehalose 0.2-2 mM; pH 6.0, 30 °C
T1 sequence (Q0ZIF5 126-556): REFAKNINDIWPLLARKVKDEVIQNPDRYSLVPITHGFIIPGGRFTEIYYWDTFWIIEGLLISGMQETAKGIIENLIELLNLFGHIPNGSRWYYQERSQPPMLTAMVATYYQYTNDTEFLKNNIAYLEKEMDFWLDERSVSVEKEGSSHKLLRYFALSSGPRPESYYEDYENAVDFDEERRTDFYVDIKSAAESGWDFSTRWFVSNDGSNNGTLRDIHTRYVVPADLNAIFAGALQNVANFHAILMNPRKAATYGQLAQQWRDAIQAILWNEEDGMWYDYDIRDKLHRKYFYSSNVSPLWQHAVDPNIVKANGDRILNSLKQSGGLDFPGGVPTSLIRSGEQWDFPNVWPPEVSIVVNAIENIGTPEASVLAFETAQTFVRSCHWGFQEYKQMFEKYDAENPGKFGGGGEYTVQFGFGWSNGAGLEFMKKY

[2] = target: T2, WT (SfTre1, S. frugiperda midgut soluble trehalase, recombinant) (Spodoptera frugiperda, UniProt Q0ZIF5); assay: as above; format: biochemical
T2 sequence (Q0ZIF5 24-587): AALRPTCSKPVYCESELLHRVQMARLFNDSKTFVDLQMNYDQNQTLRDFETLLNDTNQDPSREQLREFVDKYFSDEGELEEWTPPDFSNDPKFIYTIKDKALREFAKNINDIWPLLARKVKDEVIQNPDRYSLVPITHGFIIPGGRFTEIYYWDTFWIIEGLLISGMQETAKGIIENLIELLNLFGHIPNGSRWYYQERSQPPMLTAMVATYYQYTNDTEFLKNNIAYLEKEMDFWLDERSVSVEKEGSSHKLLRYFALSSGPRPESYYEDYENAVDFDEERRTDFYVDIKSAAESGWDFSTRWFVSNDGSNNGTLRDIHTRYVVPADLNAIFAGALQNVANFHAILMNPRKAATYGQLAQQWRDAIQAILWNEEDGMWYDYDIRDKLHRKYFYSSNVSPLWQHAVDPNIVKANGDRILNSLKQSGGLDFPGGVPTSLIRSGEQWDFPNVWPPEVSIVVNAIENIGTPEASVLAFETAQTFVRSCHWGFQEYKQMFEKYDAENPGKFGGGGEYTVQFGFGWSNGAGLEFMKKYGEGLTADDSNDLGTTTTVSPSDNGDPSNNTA

[3] = target: T3, NT (N-terminal truncated trehalase) (Spodoptera frugiperda, UniProt Q0ZIF5); assay: as above; format: biochemical; conditions: read-out: Enzyme / NT; competitive; substrate trehalose 0.2-2 mM; pH 6.0, 30 °C
T3 sequence (Q0ZIF5 126-587): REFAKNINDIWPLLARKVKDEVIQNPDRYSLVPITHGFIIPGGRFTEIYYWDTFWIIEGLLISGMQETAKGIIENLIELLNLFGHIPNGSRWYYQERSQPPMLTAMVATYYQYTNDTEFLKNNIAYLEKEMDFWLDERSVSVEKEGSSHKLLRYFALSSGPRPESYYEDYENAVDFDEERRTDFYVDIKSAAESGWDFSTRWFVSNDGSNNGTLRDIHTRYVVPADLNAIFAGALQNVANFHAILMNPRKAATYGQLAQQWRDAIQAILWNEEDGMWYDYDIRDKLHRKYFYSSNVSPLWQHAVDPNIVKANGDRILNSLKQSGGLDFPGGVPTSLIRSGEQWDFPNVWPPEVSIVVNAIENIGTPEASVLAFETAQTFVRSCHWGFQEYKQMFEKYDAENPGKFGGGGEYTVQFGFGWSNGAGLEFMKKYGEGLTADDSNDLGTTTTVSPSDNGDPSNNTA

[4] = target: T4, NCT (N- and C-terminal truncated trehalase) (Spodoptera frugiperda, UniProt Q0ZIF5, C-[…]/DEL1-102/LAST/RESIDUES/[…]); assay: as above; format: biochemical
T4 sequence (Q0ZIF5 126-556): T1 sequence (Q0ZIF5 126-556)

[5] = target: T2, WT (SfTre1, S. frugiperda midgut soluble trehalase, recombinant); assay: as above; format: biochemical; remark: listed apart in the source
[6] = target: T4, NCT (N- and C-terminal truncated trehalase); assay: as above; format: biochemical; remark: listed apart in the source
[7] = target: T5, NT (N-terminal truncated trehalase) (Spodoptera frugiperda, UniProt Q0ZIF5, DEL1-102); assay: as above; format: biochemical
T5 sequence (Q0ZIF5 126-587): T3 sequence (Q0ZIF5 126-587)

purified protein = substrate: OC[C@H]1O[C@H](O[C@H]2O[C@H](CO)[C@@H](O)[C@H](O)[C@H]2O)[C@H](O)[C@@H](O)[C@@H]1O; assay: purified protein; conditions: pH 6.0 citrate-sodium phosphate, 30 °C

Ki [1]: 16000 ± 1000 µM
Ki ([2]; read-out: Enzyme / WT, competitive, substrate trehalose 0.2-2 mM, pH 6.0, 30 °C): 17000 ± 1000 µM
Ki [3]: 17000 ± 2000 µM
Molecule: COC1OC(CO)C(O)C(O)C1O (stereo not drawn) [methyl α-mannoside]

Ki [4]: 0.8 ± 0.2 µM
Ki [2]: 1 ± 0.24 µM
Molecule: OC[C@H]1NC[C@H](O)[C@@H](O)[C@@H]1O [1-deoxynojirimycin]

Molecule: N#C[C@H](O[C@@H]1O[C@H](CO[C@@H]2O[C@H](CO)[C@@H](O)[C@H](O)[C@H]2O)[C@@H](O)[C@H](O)[C@H]1O)c1ccccc1 [amygdalin]
Ki [5]: 280 ± 70 µM
Ki [6]: 490 ± 90 µM
Ki [7]: 400 ± 100 µM

B1: WT (SfTre1, S. frugiperda midgut soluble trehalase, recombinant) (Spodoptera frugiperda) (protein)
chain: T2 sequence (Q0ZIF5 24-587)
kcat/Km (purified protein): 74500 M⁻¹ s⁻¹
